# Measurements taken from PubChem BioAssay AID1963847 (Molecular Pharmacology Branch, DTP, NCI, 2024).
# System: 415267-285-R-J2-PDC complex spheroid viability
# Assay: Anticancer human tumor 415267-285-R-J2-PDC patient-derived breast carcinoma cell line growth inhibition [POLQ]
# Settings: for IC50: curve of first compound; for viability, T/C: stronger effect = lower value
# Method in brief: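 Complex spheroid viability model combining PDC tumour cells with endothelial (HUVEC) and MSC stromal cells. Novobiocin, ART-558 or RP6685 were tested singly and in combination with standard and investigational anticancer drugs. Each was titrated in half-log steps from near clinical Cmax, or from 10 microM where Cmax was unknown.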
# [1] = second compound 0.0316 µM, first compound 0.0316 µM
# [2] = second compound 0.0316 µM, first compound 0.1 µM
# [3] = second compound 0.0316 µM, first compound 0.316 µM
# [4] = second compound 0.0316 µM, first compound 1 µM
# [5] = second compound 0.0316 µM, first compound 3.16 µM
# [6] = second compound 0.0316 µM, first compound 10 µM
# [7] = second compound 0.1 µM, first compound 0.0316 µM
# [8] = second compound 0.1 µM, first compound 0.1 µM
# [9] = second compound 0.1 µM, first compound 0.316 µM
# [10] = second compound 0.1 µM, first compound 1 µM
# [11] = second compound 0.1 µM, first compound 3.16 µM
# [12] = second compound 0.1 µM, first compound 10 µM
# [13] = second compound 0.316 µM, first compound 0.0316 µM
# [14] = second compound 0.316 µM, first compound 0.1 µM
# [15] = second compound 0.316 µM, first compound 0.316 µM
# [16] = second compound 0.316 µM, first compound 1 µM
# [17] = second compound 0.316 µM, first compound 3.16 µM
# [18] = second compound 0.316 µM, first compound 10 µM
# [19] = second compound 1 µM, first compound 0.0316 µM
# [20] = second compound 1 µM, first compound 0.1 µM
# [21] = second compound 1 µM, first compound 0.316 µM
# [22] = second compound 1 µM, first compound 1 µM
# [23] = second compound 1 µM, first compound 3.16 µM
# [24] = second compound 1 µM, first compound 10 µM
# [25] = second compound 3.16 µM, first compound 0.0316 µM
# [26] = second compound 3.16 µM, first compound 0.1 µM
# [27] = second compound 3.16 µM, first compound 0.316 µM
# [28] = second compound 3.16 µM, first compound 1 µM
# [29] = second compound 3.16 µM, first compound 3.16 µM
# [30] = second compound 3.16 µM, first compound 10 µM
# [31] = second compound 10 µM, first compound 0.0316 µM
# [32] = second compound 10 µM, first compound 0.1 µM
# [33] = second compound 10 µM, first compound 0.316 µM
# [34] = second compound 10 µM, first compound 1 µM
# [35] = second compound 10 µM, first compound 3.16 µM
# [36] = second compound 10 µM, first compound 10 µM
# 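Further: spheroids exposed to compounds for one week before readout.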
# 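Wherever viability, T/C is given: luminescence used as stand-in measure of viable cells; 100% = DMSO vehicle control viability.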
smiles,measurement,setting,value
CC1COCCN1c1cc(C2(S(C)(=N)=O)CC2)nc(-c2ccnc3[nH]ccc23)n1 (stereo not drawn) + Nc1ccc(C#CCN(C(=O)Cc2ncc(C(F)(F)F)cc2C(F)(F)F)c2ccc(F)cc2)nn1,IC50,second compound 0.0316 µM,0.541 µM
same,IC50,second compound 0.1 µM,0.514 µM
same,IC50,second compound 0.316 µM,0.592 µM
same,IC50,second compound 1 µM,0.537 µM
same,IC50,second compound 3.16 µM,0.559 µM
same,IC50,second compound 10 µM,0.527 µM
same,"viability, T/C",[1],106%
same,"viability, T/C",[2],113%
same,"viability, T/C",[3],81.3%
same,"viability, T/C",[4],14.2%
same,"viability, T/C",[5],5.34%
same,"viability, T/C",[6],3.83%
same,"viability, T/C",[7],94.3%
same,"viability, T/C",[8],108%
same,"viability, T/C",[9],75%
same,"viability, T/C",[10],15.4%
same,"viability, T/C",[11],5.4%
same,"viability, T/C",[12],3.91%
same,"viability, T/C",[13],104%
same,"viability, T/C",[14],101%
same,"viability, T/C",[15],92.6%
same,"viability, T/C",[16],14.3%
same,"viability, T/C",[17],5.2%
same,"viability, T/C",[18],3.58%
same,"viability, T/C",[19],104%
same,"viability, T/C",[20],95%
same,"viability, T/C",[21],81.9%
same,"viability, T/C",[22],12.5%
same,"viability, T/C",[23],6.5%
same,"viability, T/C",[24],2.93%
same,"viability, T/C",[25],102%
same,"viability, T/C",[26],104%
same,"viability, T/C",[27],87.3%
same,"viability, T/C",[28],12%
same,"viability, T/C",[29],5.15%
same,"viability, T/C",[30],4.26%
same,"viability, T/C",[31],111%
same,"viability, T/C",[32],91.2%
same,"viability, T/C",[33],80.8%
same,"viability, T/C",[34],11.4%
same,"viability, T/C",[35],5.02%
same,"viability, T/C",[36],4.34%
CCCS(=O)(=O)Nc1ccc(F)c(C(=O)c2c[nH]c3ncc(-c4ccc(Cl)cc4)cc23)c1F + Nc1ccc(C#CCN(C(=O)Cc2ncc(C(F)(F)F)cc2C(F)(F)F)c2ccc(F)cc2)nn1,IC50,second compound 0.0316 µM,> 10 µM
same,IC50,second compound 0.1 µM,> 10 µM
same,IC50,second compound 0.316 µM,> 10 µM
same,IC50,second compound 1 µM,> 10 µM
same,IC50,second compound 3.16 µM,> 10 µM
same,IC50,second compound 10 µM,> 10 µM
same,"viability, T/C",[1],92%
same,"viability, T/C",[2],111%
same,"viability, T/C",[3],102%
same,"viability, T/C",[4],90.8%
same,"viability, T/C",[5],90.6%
same,"viability, T/C",[6],89.6%
same,"viability, T/C",[7],117%
same,"viability, T/C",[8],105%
same,"viability, T/C",[9],91.1%
same,"viability, T/C",[10],107%
same,"viability, T/C",[11],109%
same,"viability, T/C",[12],90.3%
same,"viability, T/C",[13],114%
same,"viability, T/C",[14],109%
same,"viability, T/C",[15],108%
same,"viability, T/C",[16],95.2%
same,"viability, T/C",[17],96.2%
same,"viability, T/C",[18],89.2%
same,"viability, T/C",[19],110%
same,"viability, T/C",[20],107%
same,"viability, T/C",[21],105%
same,"viability, T/C",[22],100%
same,"viability, T/C",[23],105%
same,"viability, T/C",[24],82.3%
same,"viability, T/C",[25],107%
same,"viability, T/C",[26],112%
same,"viability, T/C",[27],107%
same,"viability, T/C",[28],104%
same,"viability, T/C",[29],94.2%
same,"viability, T/C",[30],92.9%
same,"viability, T/C",[31],95.5%
same,"viability, T/C",[32],105%
same,"viability, T/C",[33],104%
same,"viability, T/C",[34],98.4%
same,"viability, T/C",[35],104%
same,"viability, T/C",[36],90.8%
COc1cc2cc(C(=O)CCC(=O)O)sc2cc1OC + Nc1ccc(C#CCN(C(=O)Cc2ncc(C(F)(F)F)cc2C(F)(F)F)c2ccc(F)cc2)nn1,IC50,second compound 0.0316 µM,> 10 µM
same,IC50,second compound 0.1 µM,> 10 µM
same,IC50,second compound 0.316 µM,> 10 µM
same,IC50,second compound 1 µM,> 10 µM
same,IC50,second compound 3.16 µM,> 10 µM
same,IC50,second compound 10 µM,> 10 µM
same,"viability, T/C",[1],108%
same,"viability, T/C",[2],95.4%
same,"viability, T/C",[3],93.7%
same,"viability, T/C",[4],97.3%
same,"viability, T/C",[5],93.8%
same,"viability, T/C",[6],97.3%
same,"viability, T/C",[7],111%
same,"viability, T/C",[8],105%
same,"viability, T/C",[9],94.2%
same,"viability, T/C",[10],98.2%
same,"viability, T/C",[11],92.5%
same,"viability, T/C",[12],95.1%
same,"viability, T/C",[13],111%
same,"viability, T/C",[14],103%
same,"viability, T/C",[15],91.8%
same,"viability, T/C",[16],89.9%
same,"viability, T/C",[17],98.9%
same,"viability, T/C",[18],85.9%
same,"viability, T/C",[19],103%
same,"viability, T/C",[20],88.9%
same,"viability, T/C",[21],96.6%
same,"viability, T/C",[22],102%
same,"viability, T/C",[23],96.5%
same,"viability, T/C",[24],91.2%
same,"viability, T/C",[25],105%
same,"viability, T/C",[26],92%
same,"viability, T/C",[27],101%
same,"viability, T/C",[28],98.9%
same,"viability, T/C",[29],94.3%
same,"viability, T/C",[30],109%
same,"viability, T/C",[31],101%
same,"viability, T/C",[32],97.4%
same,"viability, T/C",[33],100%
same,"viability, T/C",[34],106%
same,"viability, T/C",[35],97.9%
same,"viability, T/C",[36],96.5%
COc1ccc([C@@H](O)c2cc(-c3ncnc4cc(N5CCOCC5)ccc34)c(F)cc2Cl)nn1 + Nc1ccc(C#CCN(C(=O)Cc2ncc(C(F)(F)F)cc2C(F)(F)F)c2ccc(F)cc2)nn1,IC50,second compound 0.0316 µM,> 10 µM
same,IC50,second compound 0.1 µM,> 10 µM
same,IC50,second compound 0.316 µM,> 10 µM
same,IC50,second compound 1 µM,> 10 µM
same,IC50,second compound 3.16 µM,> 10 µM
same,IC50,second compound 10 µM,> 10 µM
same,"viability, T/C",[1],94.4%
same,"viability, T/C",[2],99.9%
same,"viability, T/C",[3],100%
same,"viability, T/C",[4],106%
same,"viability, T/C",[5],93%
same,"viability, T/C",[6],58.2%
same,"viability, T/C",[7],108%
same,"viability, T/C",[8],109%
same,"viability, T/C",[9],84.7%
same,"viability, T/C",[10],92.4%
same,"viability, T/C",[11],95.2%
same,"viability, T/C",[12],53.2%
same,"viability, T/C",[13],107%
same,"viability, T/C",[14],103%
same,"viability, T/C",[15],107%
same,"viability, T/C",[16],110%
same,"viability, T/C",[17],84.4%
same,"viability, T/C",[18],58%
same,"viability, T/C",[19],98.7%
same,"viability, T/C",[20],88%
same,"viability, T/C",[21],104%
same,"viability, T/C",[22],102%
same,"viability, T/C",[23],91.2%
same,"viability, T/C",[24],51.6%
same,"viability, T/C",[25],102%
same,"viability, T/C",[26],104%
same,"viability, T/C",[27],108%
same,"viability, T/C",[28],106%
same,"viability, T/C",[29],93.3%
same,"viability, T/C",[30],69.1%
same,"viability, T/C",[31],105%
same,"viability, T/C",[32],107%
same,"viability, T/C",[33],102%
same,"viability, T/C",[34],102%
same,"viability, T/C",[35],89.3%
same,"viability, T/C",[36],64.5%
